The results in this text go back to patent publication US7192906B2, “Substituted pyrazole derivatives, production process thereof, and herbicide compositions containing the derivatives” (SDS Biotech K.K., priority 2001, dated 2007).

Holding throughout (assay type): in vivo
The test system of data set [1] is Digitaria adscendens. Put plainly: Test Example 1 upland field foliage treatment. The following applies: Table 4, upland field foliage treatment, index 0-5. On the procedure: (§1) A plastic pot of 130 cm^2 was filled with upland soil. Subsequently, weed seeds of Setaria viridis, Digitaria adscendens, Chenopodium album and Stellaria media, and crop seeds of soybean (Glycine max) and wheat (Triticum aestivum), were sowed and covered with soil of about 1 cm thickness. On the 14th day after the sowing, the wettable powder prepared in Formulation Example 1 was diluted with water such that the amount of the active ingredient became 1 kg per hectare, and then uniformly applied to the plant leaf surfaces. On the 21st day after the application, observation and evaluation were carried out according to the criteria described below.
(§2) Herbicidal activity was evaluated based on the following criteria.
(§3) • 5: herbicidal effect of not less than 90%, or phytotoxicity of 90% or more • 4: herbicidal effect of not less than 70% and less than 90%, or phytotoxicity of 70% or more and less than 90% • 3: herbicidal effect of not less than 50% and less than 70%, or phytotoxicity of 50% or more and less than 70% • 2: herbicidal effect of not less than 30% and less than 50%, or phytotoxicity of 30% or more and less than 50% • 1: herbicidal effect of not less than 10% and less than 30%, or phytotoxicity of 10% or more and less than 30% • 0: herbicidal effect of not less than 0% and less than 10%, or phytotoxicity of 0% or more and less than 10%

Data set [2] concerns Setaria viridis. Put plainly: Test Example 1 upland field foliage treatment. The following applies: Table 4, upland field foliage treatment, index 0-5. On the procedure:
as §1, §2, §3

The test system of data set [3] is Chenopodium album. The data set is described as follows: Test Example 1 upland field foliage treatment. The following applies: Table 4, upland field foliage treatment, index 0-5. On the procedure: as §1, §2, §3
In data set [4] the test system is Stellaria media. Put plainly: Test Example 1 upland field foliage treatment. The following applies: Table 4, upland field foliage treatment, index 0-5. On the procedure:
as §1, §2, §3

Data set [5] relates to wheat (Triticum aestivum). Put plainly: Test Example 2 upland soil treatment, crop phytotoxicity. The following applies: Table 5, upland soil treatment, index 0-5. The protocol:
as §1, with “next” for “14th”, “soil surface.” for “plant leaf surfaces.”, “aforesaid criteria.” for “criteria described below.”
as §2, §3

Data set [6] concerns soybean (Glycine max). The data set is described as above. To be noted: Table 5, upland soil treatment, index 0-5. On the procedure: as §1, with “next” for “14th”, “soil surface.” for “plant leaf surfaces.”, “aforesaid criteria.” for “criteria described below.”
as §2, §3

Data set [7] has as its system wheat (Triticum aestivum). Put plainly: Test Example 1 upland field foliage treatment, crop phytotoxicity. To be noted: Table 4, upland field foliage treatment, index 0-5. On the procedure:
as §1, §2, §3

The subject of data set [8] is soybean (Glycine max). The data set is described as above. The following applies: Table 4, upland field foliage treatment, index 0-5. On the procedure: as §1, §2, §3
Data set [9] has as its system Digitaria adscendens. The data set is described as follows: Test Example 2 upland soil treatment. The following applies: Table 5, upland soil treatment, index 0-5. On the procedure: as §1, with “next” for “14th”, “soil surface.” for “plant leaf surfaces.”, “aforesaid criteria.” for “criteria described below.”
as §2, §3

The test system of data set [10] is Setaria viridis. The data set is described as follows: Test Example 2 upland soil treatment. The following applies: Table 5, upland soil treatment, index 0-5. The protocol: as §1, with “next” for “14th”, “soil surface.” for “plant leaf surfaces.”, “aforesaid criteria.” for “criteria described below.”
as §2, §3

In data set [11] the test system is Chenopodium album. The data set is described as follows: Test Example 2 upland soil treatment. The following applies: Table 5, upland soil treatment, index 0-5. On the procedure: as §1, with “next” for “14th”, “soil surface.” for “plant leaf surfaces.”, “aforesaid criteria.” for “criteria described below.”
as §2, §3

In data set [12] the test system is Stellaria media. Put plainly: Test Example 2 upland soil treatment. To be noted: Table 5, upland soil treatment, index 0-5. On the procedure: as §1, with “next” for “14th”, “soil surface.” for “plant leaf surfaces.”, “aforesaid criteria.” for “criteria described below.”
as §2, §3

For the compound `CNC(=O)C(Cn1ccc(-c2ccccc2)n1)=NOC` [Compound 13], the “Herbicidal activity DA: Digitaria adscendens” value (from here on “Herbicidal activity DA”) is 4 (herbicidal effect of not less than 70% and less than 90%, or phytotoxicity of 70% or more and less than 90%) in the data set on Digitaria adscendens [1]; 4 (herbicidal effect of not less than 70% and less than 90%, or phytotoxicity of 70% or more and less than 90%) in the data set with Digitaria adscendens [9]. Also, the “Herbicidal activity SV: Setaria viridis” value with Setaria viridis [2] is 3 (herbicidal effect of not less than 50% and less than 70%, or phytotoxicity of 50% or more and less than 70%); with Setaria viridis [10], 4 (herbicidal effect of not less than 70% and less than 90%, or phytotoxicity of 70% or more and less than 90%). Moreover, the “Herbicidal activity CA: Chenopodium album” value (“Herbicidal activity CA” below) with Chenopodium album [3] is 4 (herbicidal effect of not less than 70% and less than 90%, or phytotoxicity of 70% or more and less than 90%); in the data set on Chenopodium album [11] it was 5 (herbicidal effect of not less than 90%, or phytotoxicity of 90% or more). Besides, the “Herbicidal activity SM: Stellaria media” value in the data set on Stellaria media [4] was 4 (herbicidal effect of not less than 70% and less than 90%, or phytotoxicity of 70% or more and less than 90%); with Stellaria media [12], 5 (herbicidal effect of not less than 90%, or phytotoxicity of 90% or more). In addition, the “Herbicidal activity (phytotoxicity) TA: Wheat (Triticum aestivum)” value (“Herbicidal activity (phytotoxicity) TA” below) in data set [5] is 0 (herbicidal effect of not less than 0% and less than 10%, or phytotoxicity of 0% or more and less than 10%); in data set [7] it was 0 (herbicidal effect of not less than 0% and less than 10%, or phytotoxicity of 0% or more and less than 10%). Further, the “Herbicidal activity (phytotoxicity) GM: Soybean (Glycine max)” value (“Herbicidal activity (phytotoxicity) GM” below) was 0 (herbicidal effect of not less than 0% and less than 10%, or phytotoxicity of 0% or more and less than 10%) with soybean (Glycine max) [6]; 0 (herbicidal effect of not less than 0% and less than 10%, or phytotoxicity of 0% or more and less than 10%) in the data set on soybean (Glycine max) [8].

For the compound `CCOC(CNC(=O)C(Cn1cc(C)c(-c2ccccc2)n1)=NOC)OCC` [Compound 28], the “Herbicidal activity DA” value with Digitaria adscendens [1] is 3 (herbicidal effect of not less than 50% and less than 70%, or phytotoxicity of 50% or more and less than 70%); in the data set on Digitaria adscendens [9] it was 4 (herbicidal effect of not less than 70% and less than 90%, or phytotoxicity of 70% or more and less than 90%). The “Herbicidal activity SV: Setaria viridis” value in the data set on Setaria viridis [2] was 3 (herbicidal effect of not less than 50% and less than 70%, or phytotoxicity of 50% or more and less than 70%); in the data set on Setaria viridis [10] it was 3 (herbicidal effect of not less than 50% and less than 70%, or phytotoxicity of 50% or more and less than 70%). In addition, the “Herbicidal activity CA” value was 4 (herbicidal effect of not less than 70% and less than 90%, or phytotoxicity of 70% or more and less than 90%) in the data set on Chenopodium album [3]; 4 (herbicidal effect of not less than 70% and less than 90%, or phytotoxicity of 70% or more and less than 90%) in the data set on Chenopodium album [11]. Also, the “Herbicidal activity SM: Stellaria media” value with Stellaria media [4] is 3 (herbicidal effect of not less than 50% and less than 70%, or phytotoxicity of 50% or more and less than 70%); in the data set on Stellaria media [12] it was 3 (herbicidal effect of not less than 50% and less than 70%, or phytotoxicity of 50% or more and less than 70%). The “Herbicidal activity (phytotoxicity) TA” value in [5] was 0 (herbicidal effect of not less than 0% and less than 10%, or phytotoxicity of 0% or more and less than 10%); in [7] it was 0 (herbicidal effect of not less than 0% and less than 10%, or phytotoxicity of 0% or more and less than 10%). Also, the “Herbicidal activity (phytotoxicity) GM” value in the data set on soybean (Glycine max) [6] was 0 (herbicidal effect of not less than 0% and less than 10%, or phytotoxicity of 0% or more and less than 10%); in the data set on soybean (Glycine max) [8], 0 (herbicidal effect of not less than 0% and less than 10%, or phytotoxicity of 0% or more and less than 10%).

For the compound `CNC(=O)C(Cn1cc(C)c(-c2cccc(C)c2)n1)=NOC` [Compound 36], the “Herbicidal activity DA” value in the data set with Digitaria adscendens [1] is 5 (herbicidal effect of not less than 90%, or phytotoxicity of 90% or more); with Digitaria adscendens [9] it was 4 (herbicidal effect of not less than 70% and less than 90%, or phytotoxicity of 70% or more and less than 90%). For the same compound, the “Herbicidal activity SV: Setaria viridis” value in the data set on Setaria viridis [2] is 4 (herbicidal effect of not less than 70% and less than 90%, or phytotoxicity of 70% or more and less than 90%); in the data set on Setaria viridis [10] it was 4 (herbicidal effect of not less than 70% and less than 90%, or phytotoxicity of 70% or more and less than 90%). The “Herbicidal activity CA” value is on record as 5 (herbicidal effect of not less than 90%, or phytotoxicity of 90% or more) in the data set with Chenopodium album [3] and 5 (herbicidal effect of not less than 90%, or phytotoxicity of 90% or more) with Chenopodium album [11]. For the same compound, the “Herbicidal activity SM: Stellaria media” value was 4 (herbicidal effect of not less than 70% and less than 90%, or phytotoxicity of 70% or more and less than 90%) with Stellaria media [4]; 5 (herbicidal effect of not less than 90%, or phytotoxicity of 90% or more) in the data set with Stellaria media [12]. In addition, the “Herbicidal activity (phytotoxicity) TA” value in data set [5] was 0 (herbicidal effect of not less than 0% and less than 10%, or phytotoxicity of 0% or more and less than 10%); in data set [7] it was 0 (herbicidal effect of not less than 0% and less than 10%, or phytotoxicity of 0% or more and less than 10%). Also, the “Herbicidal activity (phytotoxicity) GM” value is 1 (herbicidal effect of not less than 10% and less than 30%, or phytotoxicity of 10% or more and less than 30%) in the data set on soybean (Glycine max) [6]; 0 (herbicidal effect of not less than 0% and less than 10%, or phytotoxicity of 0% or more and less than 10%) in the data set on soybean (Glycine max) [8].

As to `CNC(=O)C(Cn1cc(C)c(-c2ccc(C#N)cc2)n1)=NOC` [Compound 51], the “Herbicidal activity (phytotoxicity) TA” value in data set [5] was 0 (herbicidal effect of not less than 0% and less than 10%, or phytotoxicity of 0% or more and less than 10%). Also, the “Herbicidal activity (phytotoxicity) GM” value with soybean (Glycine max) [6] was 0 (herbicidal effect of not less than 0% and less than 10%, or phytotoxicity of 0% or more and less than 10%). Moreover, the “Herbicidal activity DA” value in the data set on Digitaria adscendens [9] was 4 (herbicidal effect of not less than 70% and less than 90%, or phytotoxicity of 70% or more and less than 90%). For the same compound, in the data set with Setaria viridis [10], the “Herbicidal activity SV: Setaria viridis” value was 4 (herbicidal effect of not less than 70% and less than 90%, or phytotoxicity of 70% or more and less than 90%). For the same compound, the “Herbicidal activity CA” value in the data set with Chenopodium album [11] is 4 (herbicidal effect of not less than 70% and less than 90%, or phytotoxicity of 70% or more and less than 90%). Further, in the data set on Stellaria media [12], the “Herbicidal activity SM: Stellaria media” value is 4 (herbicidal effect of not less than 70% and less than 90%, or phytotoxicity of 70% or more and less than 90%).
